Results on 65 molecules are retold here after patent publication US20230339851A1, “CXCR6 SULFONAMIDE COMPOUNDS” (CHEMOCENTRYX, INC., priority 2022, published 2023).

T1 sequence (O00574 whole entry): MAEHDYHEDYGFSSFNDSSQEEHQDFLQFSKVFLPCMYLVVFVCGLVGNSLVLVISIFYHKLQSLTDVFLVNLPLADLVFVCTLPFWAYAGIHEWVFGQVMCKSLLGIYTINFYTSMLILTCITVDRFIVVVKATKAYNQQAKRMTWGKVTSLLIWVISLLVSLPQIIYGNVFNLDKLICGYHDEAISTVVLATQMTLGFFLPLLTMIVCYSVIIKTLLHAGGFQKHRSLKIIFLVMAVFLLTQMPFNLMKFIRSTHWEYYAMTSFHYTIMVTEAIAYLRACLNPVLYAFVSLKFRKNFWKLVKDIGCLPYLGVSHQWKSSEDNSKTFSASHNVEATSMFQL

This assay concerns the target T1, human CXCR6 (Homo sapiens, UniProt O00574).
T1 construct: expressed in transfected cells
The assay is described as follows: Radioligand Binding Assay (125I-CXCL16 displacement). Particulars: L1.2 cells stably transfected with human CXCR6 cDNA, 0.1 nM 125I-CXCL16, 4° C., three-hour incubation; read-out: Potency (IC50). In a few lines:
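Displacement of 0.1 nM 125I-CXCL16 from human CXCR6 stably expressed in L1.2 cells was measured after a 3 h, 4 °C incubation in HBSS with 0.1% BSA. Filter-bound cpm were counted, and IC50 values came from a 3-parameter nonlinear fit.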
Consider `CCOc1cc(NC(=O)c2ccc(=O)n(C)c2)ccc1S(=O)(=O)Nc1cccc(OC(F)(F)F)c1` [Example 1.515], for which the half-inhibitory concentration (IC50) was 0.75 to 2 µM.

Regarding `CCOc1cc(NC(=O)[C@@H](CO)C2CC2)ccc1S(=O)(=O)Nc1cccc(C(C)(C)C)c1` [Example 1.516], the IC50 is 0.2 to 0.75 µM.

As for `CCOc1cc(NC(=O)C(C)C(O)C2CC3C=CC2C3)ccc1S(=O)(=O)Nc1cccc(OC(F)(F)F)c1` (centres unmarked) [Example 1.517], the IC50 lay within 0.2 to 0.75 µM.

Turning to `CCn1nccc1C(=O)Nc1ccc(S(=O)(=O)Nc2cccc(C(F)(F)F)c2)c(C)c1` [Example 1.519], the IC50 is 0.2 to 0.75 µM.

On to `Cc1cc(NC(=O)c2ccnn2C)cc(F)c1S(=O)(=O)Nc1cccc(C(F)(F)F)c1` [Example 1.520], for which the 50% inhibitory concentration (IC50) is 0.75 to 2 µM.

As to `CCOc1cc(NC(=O)[C@@H](O)C(C)C)ccc1S(=O)(=O)Nc1ccc(C2CC2)c(OC(F)(F)F)c1` [Example 1.521], the half-maximal inhibitory concentration (IC50) is at most 0.2 µM.

As to `Cc1cc(NC(=O)C2CCN(C)CC2)ccc1S(=O)(=O)Nc1cccc(C(F)(F)F)c1` [Example 1.522], the IC50 was 2 to 20 µM.

Turning to `CCOc1cc(NC(=O)[C@@H](CO)C(C)C)ccc1S(=O)(=O)Nc1ccc(Cl)c(C(F)(F)F)c1` [Example 1.523], the half-maximal inhibitory concentration (IC50) was at most 0.2 µM.

In the case of `Cc1cc(NC(=O)c2ccncc2)ccc1S(=O)(=O)Nc1cccc(C(F)(F)F)c1` [Example 1.524], the 50% inhibitory concentration (IC50) is 0.2 to 0.75 µM.

Turning to `COc1cc(NC(=O)C2=C(C)OCCC2)ccc1S(=O)(=O)Nc1cccc(OC(F)(F)F)c1` [Example 1.525], the IC50 was in the range of 0.2 to 0.75 µM.

As to `COc1cc(NC(=O)CC2CCOC2)ccc1S(=O)(=O)Nc1cccc(C(F)(F)F)c1` (centres unmarked) [Example 1.526], the 50% inhibitory concentration (IC50) fell in the range of 2 to 20 µM.

`CCOc1cc(NC(=O)C(O)c2ccc(O)cc2)ccc1S(=O)(=O)Nc1cccc(OC(F)(F)F)c1` (centres unmarked) [Example 1.527]: the IC50 was 0.2 to 0.75 µM.

Turning to `CCOc1cc(NC(=O)C(O)c2cccc(Cl)c2)ccc1S(=O)(=O)Nc1cccc(OC(F)(F)F)c1` (centres unmarked) [Example 1.528], the IC50 is at most 0.2 µM.

On to `CCOc1cc(NC(=O)c2cn[nH]c(=O)c2)ccc1S(=O)(=O)Nc1cccc(OC(F)(F)F)c1` [Example 1.529], for which the concentration for half-maximal inhibition (IC50) was at most 0.2 µM.

On to `CCOc1cc(NC(=O)c2ccnnc2)ccc1S(=O)(=O)Nc1cccc(OC(F)(F)F)c1` [Example 1.530], for which the concentration for half-maximal inhibition (IC50) was at most 0.2 µM.

Regarding `CCOc1cc(NC(=O)C(C)O)ccc1S(=O)(=O)Nc1cccc(OC(F)(F)F)c1` (centres unmarked) [Example 1.532], the IC50 was 0.2 to 0.75 µM.

As for `CCOc1cc(NC(=O)[C@@H](O)C(C)C)ccc1S(=O)(=O)Nc1ccc(Cl)c(OC(F)(F)F)c1` [Example 1.533], the IC50 is at most 0.2 µM.

With `COc1cccc(C(=O)Nc2ccc(S(=O)(=O)Nc3cccc(C(F)(F)F)c3)c(C)c2)c1` [Example 1.534], the IC50 is 2 to 20 µM.

Regarding `COc1cc(NC(=O)C(O)C(C)C)ccc1S(=O)(=O)Nc1cccc(C(F)(F)F)c1` (centres unmarked) [Example 1.535], the half-inhibitory concentration (IC50) was at most 0.2 µM.

Take `CCOc1cc(NC(=O)[C@@H](CO)c2ccccc2)ccc1S(=O)(=O)Nc1cccc(OC(F)(F)F)c1` [Example 1.536]: the IC50 was at most 0.2 µM.

As to `COc1cc(NC(C)=O)cc(F)c1S(=O)(=O)Nc1cccc(OC(F)(F)F)c1` [Example 1.537], the IC50 lay in the range of 2 to 20 µM.

In the case of `Cc1cc(NC(=O)C2CCCCC2C)ccc1S(=O)(=O)Nc1cccc(C(F)(F)F)c1` (centres unmarked) [Example 1.538], the IC50 lay in the range of 0.75 to 2 µM.

As for `CCOc1cc(NC(=O)[C@H]2CC=CC[C@H]2CO)ccc1S(=O)(=O)Nc1cccc(OC(F)(F)F)c1` [Example 1.539], the IC50 fell in the range of 0.2 to 0.75 µM.

On to `CCOc1cc(NC(=O)[C@@H](CO)C(C)C)ccc1S(=O)(=O)Nc1cccc(Cl)c1C` [Example 1.540], for which the half-maximal inhibitory concentration (IC50) lay within 0.2 to 0.75 µM.

`CCOc1cc(NC(=O)[C@@H](CO)c2ccccc2)ccc1S(=O)(=O)Nc1cccc(C(C)C)c1` [Example 1.541]: the concentration for half-maximal inhibition (IC50) is at most 0.2 µM.

Consider `CC(C)Oc1cc(NC(=O)c2ccns2)ccc1S(=O)(=O)Nc1cccc(C(F)(F)F)c1` [Example 1.542], for which the 50% inhibitory concentration (IC50) fell in the range of 2 to 20 µM.

With `CCOc1cc(NC(=O)[C@@H](NC(C)=O)C(C)C)ccc1S(=O)(=O)Nc1ccc(C)c(C(F)(F)F)c1` [Example 1.543], the IC50 was at most 0.2 µM.

On to `COCC(=O)Nc1ccc(S(=O)(=O)Nc2cccc(C(F)(F)F)c2)c(C)c1` [Example 1.544], for which the concentration for half-maximal inhibition (IC50) was in the range of 2 to 20 µM.

For `CCOc1cc(NC(=O)C2CCCC(O)C2)ccc1S(=O)(=O)Nc1cccc(OC(F)(F)F)c1` (centres unmarked) [Example 1.545], the IC50 was in the range of 0.75 to 2 µM.

Take `CCOc1cc(NC(=O)[C@@H](CO)c2ccccc2)ccc1S(=O)(=O)Nc1ccc(OC)c(C(F)(F)F)c1` [Example 1.546]: the concentration for half-maximal inhibition (IC50) was 0.2 to 0.75 µM.

On to `CCOc1cc(NC(=O)[C@H](O)c2ccccc2)ccc1S(=O)(=O)Nc1cccc(OC(F)(F)F)c1` [Example 1.547], for which the half-inhibitory concentration (IC50) lay within 0.2 to 0.75 µM.

Consider `C=Cc1cc(NS(=O)(=O)c2ccc(NC(=O)[C@@H](CO)C(C)C)cc2OCC)ccc1C` [Example 1.548], for which the half-maximal inhibitory concentration (IC50) was at most 0.2 µM.

Turning to `O=C(Nc1ccc(S(=O)(=O)Nc2cccc(C(F)(F)F)c2)c(F)c1)c1ccccc1` [Example 1.549], the IC50 was in the range of 2 to 20 µM.

In the case of `CCOc1cc(NC(=O)[C@@H](CO)c2ccccc2)ccc1S(=O)(=O)Nc1ccc(Cl)c(OC)c1` [Example 1.550], the IC50 was in the range of 0.2 to 0.75 µM.

As for `CCCOc1cc(NC(=O)[C@@H](CO)C(C)C)ccc1S(=O)(=O)Nc1cccc(OC(F)(F)F)c1` [Example 1.551], the half-inhibitory concentration (IC50) was at most 0.2 µM.

With `COc1cc(NC(=O)c2ccnn2C)ccc1S(=O)(=O)Nc1ccc(C)c(C(F)(F)F)c1` [Example 1.552], the half-maximal inhibitory concentration (IC50) is at most 0.2 µM.

On to `Cc1cc(NC(=O)CN(C)C)ccc1S(=O)(=O)Nc1cccc(C(F)(F)F)c1` [Example 1.553], for which the 50% inhibitory concentration (IC50) lay in the range of 2 to 20 µM.

With `COc1cc(NC(=O)[C@@H]2CCC[C@@H](OC)C2)ccc1S(=O)(=O)Nc1cccc(C(F)(F)F)c1` [Example 1.554], the IC50 is 2 to 20 µM.

Consider `CCOc1cc(NC(=O)[C@@H](O)C(C)C)ccc1S(=O)(=O)Nc1cccc(Cl)c1Cl` [Example 1.555], for which the half-maximal inhibitory concentration (IC50) lay within 2 to 20 µM.

As for `CCOc1cc(NC(=O)[C@@H](O)c2ccccc2)ccc1S(=O)(=O)Nc1ccc(C2CC2)c(OC(F)(F)F)c1` [Example 1.556], the half-inhibitory concentration (IC50) lay within 0.2 to 0.75 µM.

For the molecule `COc1cc(NC(=O)[C@@H](O)C(C)C)ccc1S(=O)(=O)Nc1ccc(C)c(OC(F)(F)F)c1` [Example 1.557], the IC50 is at most 0.2 µM.

Consider `CCOc1cc(NC(=O)[C@@H](CO)C(C)C)ccc1S(=O)(=O)Nc1ccc(C(F)(F)F)cc1` [Example 1.558], for which the IC50 is 0.2 to 0.75 µM.

On to `COc1cc(NC(=O)c2ccnn2C)ccc1S(=O)(=O)Nc1ccc(OC(F)(F)F)c(Cl)c1` [Example 1.559], for which the half-inhibitory concentration (IC50) lay in the range of 0.75 to 2 µM.

Consider `CCOc1cc(NC(=O)[C@@H](N)c2ccccc2)ccc1S(=O)(=O)Nc1ccc(F)c(OC(F)(F)F)c1` [Example 1.560], for which the IC50 is at most 0.2 µM.

For the molecule `COc1cc(NC(=O)[C@@H]2CCC[C@H](OC)C2)ccc1S(=O)(=O)Nc1cccc(C(F)(F)F)c1` [Example 1.561], the 50% inhibitory concentration (IC50) lay in the range of 2 to 20 µM.

As for `CCOc1cc(NC(=O)[C@@H]2CCCCC[C@H]2O)ccc1S(=O)(=O)Nc1cccc(OC(F)(F)F)c1` [Example 1.562], the concentration for half-maximal inhibition (IC50) is 0.2 to 0.75 µM.

`CCOc1cc(NC(=O)C(CO)C(C)C)ccc1S(=O)(=O)Nc1cccc(OC(F)(F)F)c1` (centres unmarked) [Example 1.563]: the IC50 was at most 0.2 µM.

`CCOc1cc(NC(=O)C(O)c2ccc(Br)cc2)ccc1S(=O)(=O)Nc1cccc(OC(F)(F)F)c1` (centres unmarked) [Example 1.564]: the 50% inhibitory concentration (IC50) was in the range of 0.2 to 0.75 µM.

For `COc1cc(NC(=O)C2CC3C=CC2O3)ccc1S(=O)(=O)Nc1cccc(C(F)(F)F)c1` (centres unmarked) [Example 1.565], the concentration for half-maximal inhibition (IC50) fell in the range of 0.2 to 0.75 µM.

As for `CCOc1cc(NC(=O)Cc2ccccc2OC)ccc1S(=O)(=O)Nc1cccc(OC(F)(F)F)c1` [Example 1.566], the half-inhibitory concentration (IC50) fell in the range of 0.2 to 0.75 µM.

Consider `CCOc1cc(NC(=O)c2ccns2)ccc1S(=O)(=O)Nc1cccc(C(F)(F)F)c1` [Example 1.567], for which the half-inhibitory concentration (IC50) was at most 0.2 µM.

Consider `CCOc1cc(NC(=O)c2ccc(OC)cc2)ccc1S(=O)(=O)Nc1cccc(OC(F)(F)F)c1` [Example 1.568], for which the IC50 lay within 0.75 to 2 µM.

For the molecule `Cc1cc(NC(=O)C(CO)c2ccccc2)ccc1S(=O)(=O)Nc1cccc(OC(F)(F)F)c1` (centres unmarked) [Example 1.569], the IC50 fell in the range of 0.2 to 0.75 µM.

As to `CCOc1cc(NC(=O)[C@@H](O)C(C)C)ccc1S(=O)(=O)Nc1cccc(Cl)c1C` [Example 1.570], the IC50 was 0.75 to 2 µM.

In the case of `CCOc1cc(NC(=O)C(CC)C(=O)O)ccc1S(=O)(=O)Nc1cccc(OC(F)(F)F)c1` (centres unmarked) [Example 1.571], the IC50 was at most 0.2 µM.

Take `COc1cc(NC(=O)C2CCCCO2)ccc1S(=O)(=O)Nc1cccc(C(F)(F)F)c1` (centres unmarked) [Example 1.572]: the IC50 was 0.75 to 2 µM.

As for `CC(=O)Nc1ccc(S(=O)(=O)Nc2cccc(C(F)(F)F)c2)c(C(C)C)c1` [Example 1.573], the IC50 fell in the range of 2 to 20 µM.

Consider `COc1cc(NC(=O)CC2CCOCC2)ccc1S(=O)(=O)Nc1cccc(C(F)(F)F)c1` [Example 1.574], for which the IC50 fell in the range of 2 to 20 µM.

With `Cc1cc(NC(=O)C2CCCCC2)ccc1S(=O)(=O)Nc1cccc(C(F)(F)F)c1` [Example 1.575], the 50% inhibitory concentration (IC50) lay within 0.75 to 2 µM.

`CCOc1cc(NC(=O)[C@@H](NC(C)=O)C(C)C)ccc1S(=O)(=O)Nc1ccc(Cl)c(OC(F)(F)F)c1` [Example 1.576]: the half-maximal inhibitory concentration (IC50) was at most 0.2 µM.

Regarding `CCOc1cc(NC(=O)[C@@H](O)C(C)(C)C)ccc1S(=O)(=O)Nc1cccc(OC(F)(F)F)c1` [Example 1.577], the 50% inhibitory concentration (IC50) was at most 0.2 µM.

`CCCc1cc(C(=O)Nc2ccc(S(=O)(=O)Nc3cccc(C(F)(F)F)c3)c(OC)c2)n(C)n1` [Example 1.578]: the IC50 lay in the range of 0.75 to 2 µM.

For the molecule `CCOc1cc(NC(=O)[C@@H](O)C(C)C)ccc1S(=O)(=O)Nc1cccc(Cl)c1C(F)(F)F` [Example 1.579], the half-inhibitory concentration (IC50) was in the range of 2 to 20 µM.

Turning to `COc1ccc(NS(=O)(=O)c2ccc(NC(=O)c3ccnn3C)cc2OC)cc1C(F)(F)F` [Example 1.580], the IC50 is 0.2 to 0.75 µM.

With `COc1cc(NC(=O)c2ccnn2C)ccc1S(=O)(=O)Nc1ccc2c(c1)OC(F)(F)O2` [Example 1.582], the IC50 was in the range of 0.75 to 2 µM.
